Source: patent publication US12630546B2, “RNF4 targeting compounds and uses thereof” (TECHNION RESEARCH & DEVELOPMENT FOUNDATION LIMITED, priority 2021, dated 2026)
Entries after “also recorded” stand apart in the source; their conditions may differ.

Legend:
[1] = test system: U2OS human osteosarcoma cells; experiment: Cell viability (MTT) of osteosarcoma cells; format: cell-based; conditions: concentrations similar to A375R
Description: (§1) Cell viability was assessed using MTT (Sigma-Aldrich) and ATP-lite (Perkin Elmer) assays according to the manufacture instructions. In assays evaluating resistance to PLX4032, PLX4032-treated cells were cultured for six days before analysis. Viability was measured using cells were performed in 96-well plates and cells incubated for 24 h at 37° C. Next, cells were incubated in MTT solution (Sigma-Aldrich) and processed according to the manufacturer instructions and analyzed using Stat Fax 2100 ELISA reader.

[2] = biological target: T1, RNF4 (Homo sapiens, UniProt P78317); experiment: RNF4 protein level by western blot after R4VP treatment; format: cell-based; design: RNF4 degradation in the presence of proteasome inhibitor MG132: dose or concentration left out as unconfirmed
T1 construct: endogenous in cells; host or cells: A375 / A375R human melanoma cells
T1 sequence (P78317 1-190): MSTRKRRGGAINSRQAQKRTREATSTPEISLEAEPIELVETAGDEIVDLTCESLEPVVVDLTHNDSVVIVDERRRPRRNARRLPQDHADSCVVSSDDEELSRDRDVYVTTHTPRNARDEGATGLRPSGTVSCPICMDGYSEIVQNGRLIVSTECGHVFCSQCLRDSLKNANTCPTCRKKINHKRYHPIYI
Description: Protein stability was determined in steady state and dynamic CHX chase experiments as described (Trausch-Azar et al. 2015). Proteins resolved over SDS-PAGE, using the indicated antibodies, and visualized using chemiluminescence (Image-Quan LAS4000). Where indicated cells were treated for the indicated times and concentrations with R4VP or related compounds.

[3] = test system: mouse melanoma B16F10 cancer cells; experiment: Cell viability (MTT) of B16F10 melanoma cells; format: cell-based; conditions: three days treatment
Description: as §1

[4] = test system: human A375R melanoma; experiment: Colony formation of PLX-resistant melanoma cells; format: cell-based; conditions: added at cell seeding, colonies visualized 8 d after seeding
[5] = test system: human Myeloma U266 cells; experiment: Cell viability (MTT) of multiple myeloma cells; format: cell-based; conditions: concentrations similar to A375R
Description: as §1

[6] = test system: A375R melanoma cells; experiment: Cell death by FACS analysis (sub-G1); format: cell-based, human; conditions: 3 h exposure, 20 uM
[7] = test system: B16F10 murine melanoma cells; experiment: Colony formation of B16F10 melanoma cells; format: cell-based, mouse; conditions: nine days
[8] = test system: human U2OS sarcoma cells; experiment: Colony formation of osteosarcoma cells; format: cell-based; conditions: added at cell seeding, colonies visualized 9 d after seeding
[9] = test system: A375R melanoma cells; experiment: Cell viability (MTT) of Vemurafenib-resistant melanoma cells; format: cell-based, human; conditions: six days, in presence of PLX4032
Description: as §1

[10] = test system: human squamous skin cancer cells (SCC1); experiment: Colony formation of squamous cell carcinoma cells; format: cell-based
Description: Colony formation assay: Cells were suspended in DMEM or RPMI medium and seeded at a density of 1000 cells/well. Plates were maintained at 37° C. for six days, fixed overnight with 4% paraformaldehyde (PFA), stained with 0.05% crystal violet.

Cc1ncsc1-c1ccc(CNC(=O)[C@H]2C[C@@H](O)CN2C(=O)[C@H](NC(=O)CCC(=O)NCCCCOc2ccc(Oc3ccc(N(Cc4ccccc4)C(=O)CCl)cc3)cc2)C(C)(C)C)cc1 [R4VP, N1-(4-(4-(4-(N-benzyl-2-chloroacetamido)phenoxy)phenoxy)butyl)-N4-((R)-1-((2R,4R)-4-hydroxy-2-((4-(4-methylthiazol-5-yl)benzyl)carbamoyl)pyrrolidin-1-yl)-3,3-dimethyl-1-oxobutan-2-yl)succinamide]
effect on proliferation of U2OS cells [1]: growth inhibitory effects were also observed; also recorded: inhibits proliferation of U2OS human osteosarcoma cells in a dose dependent manner
RNF4 degradation in the presence of proteasome inhibitor MG132 ([2]; A375R cells, MG132 as printed): can be inhibited by the proteasome inhibitor MG132; also recorded: restored to levels similar to control treated cells
RNF4 protein level (exogenous HA-RNF4 or endogenous) ([2]; A375R cells, three hours treatment, western blot): reduced the level of exogenous or endogenous RNF4 protein; also recorded: induced degradation of RNF4
endogenous RNF4 level, dose dependence ([2]; A375 melanoma cells): reduces the level of endogenous RNF4 in A375 melanoma cells in a dose dependent manner
effect on proliferation/viability of B16F10 cells [3]: inhibits proliferation and colony formation
effect on proliferation/viability of B16F10 cells ([3]; listed as RNF4-VHL-PROTAC): inhibits cell proliferation and colony formation
effect on colony formation of A375R cells [4]: inhibited colony formation of melanoma and osteosarcoma cells in a dose dependent manner; also recorded: inhibits colony formation of human A375R melanoma
effect on proliferation of U266 cells [5]: growth inhibitory effects were also observed; also recorded: inhibits proliferation of human Myeloma U266cells
cell death, accumulation of cells in sub-G1 [6]: extensive cell death
cell death, accumulation of cells in sub-G1 ([6]; listed as RNF4-VHL-PROTAC): results in cell-death
effect on colony formation of B16F10 cells [7]: inhibits proliferation and colony formation
effect on colony formation of B16F10 cells ([7]; listed as RNF4-VHL-PROTAC): inhibits cell proliferation and colony formation
effect on colony formation of U2OS cells [8]: inhibited colony formation of melanoma and osteosarcoma cells in a dose dependent manner; also recorded: inhibits colony formation of human U2OS sarcoma cells
concentration inhibiting growth and proliferation ([9]; A375R): ≥ 10 µM
effect on growth and proliferation of A375R cells [9]: inhibits A375R proliferation
effect on colony formation of SCC1 cells ([10]; 1, 3 and 5 μM): inhibiting colony formation
IC50 ([10]; Homo sapiens, squamous cell carcinoma cell line, printed HCC1): < 1000 nM
